Assay results published in patent US20110172296A1, “MODULATION OF TRANSFORMING GROWTH FACTOR-BETA 1 EXPRESSION” (priority 2010, published 2011).
Several values for one entry are separate records, joined by “and”; a condition that tells them apart may be missing. Equal values may be shown once. In the oligonucleotide strings, read from the 5' end, every base follows the letter of its sugar. An asterisk marks phosphorothioate; unmarked linkages are phosphodiester. Other units and linkages are bracketed, terminal groups are in braces. A string of capitals states the bases alone. e = 2'-O-(2-methoxyethyl) (MOE); [5mC] = 5-methylcytosine; d = 2'-deoxy (DNA)

Test system: human TGF-beta1 mRNA
Assay: Antisense inhibition of human TGF-beta1 mRNA in HuVEC cells, single 10 nM dose, Lipofectamine 2000 (Example 2)
Type: cell-based
Conditions: for % inhibition: 10 nM oligonucleotide, HuVEC, relative to untreated control cells, gapmers targeted to SEQ ID NO: 2; for inhibition of a TGF-beta1 mRNA: threshold lists of Oligo IDs, 10 nM
In short: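 Percent inhibition relative to untreated controls, from qRT-PCR of mRNA corrected for total RNA (RIBOGREEN). Cells were exposed 4 h to 10 nM phosphorothioate 2-13-5 MOE gapmers with Lipofectamine 2000 at 5,000 cells/well. RNA was harvested after roughly 24 h recovery.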

Substance: 414063 (antisense eA*eA*dG*dT*d[5mC]*dG*dA*d[5mC]*dT*dA*dA*dG*dG*d[5mC]*dT*eG*eG*e[5mC]*eA*e[5mC]) [compound 414063]
- % inhibition: 80%
- inhibition of a TGF-beta1 mRNA: 60% and 65% and 70% and 75% and 80%

Substance: 414064 (antisense eT*eG*dT*dG*dA*d[5mC]*d[5mC]*dT*dT*dG*dA*dG*dG*dA*dA*eG*eT*eG*eG*eT) [compound 414064]
- % inhibition: 61%
- inhibition of a TGF-beta1 mRNA: 60%

Substance: 414065 (antisense eA*eA*dA*dT*dG*dA*dA*dG*dG*dG*dA*dG*dG*d[5mC]*dG*eA*eT*e[5mC]*eA*eG) [compound 414065]
- % inhibition: 24%

Substance: 414066 (antisense eG*eT*dG*dG*dA*d[5mC]*d[5mC]*dT*dT*dG*dT*dA*dA*d[5mC]*d[5mC]*eA*eG*e[5mC]*e[5mC]*eG) [compound 414066]
- % inhibition: 80%
- inhibition of a TGF-beta1 mRNA: 60% and 65% and 70% and 75% and 80%

Substance: 414067 (antisense eT*e[5mC]*d[5mC]*dT*dA*dG*dG*dA*dT*dG*d[5mC]*dA*dA*dA*dG*eA*eG*eT*e[5mC]*eT) [compound 414067]
- % inhibition: 71%
- inhibition of a TGF-beta1 mRNA: 60% and 65% and 70%

Substance: 414068 (antisense eT*e[5mC]*dT*dG*d[5mC]*dA*dA*d[5mC]*dA*dT*d[5mC]*d[5mC]*dA*dA*dA*eA*eT*eA*eG*eT) [compound 414068]
- % inhibition: 53%

Substance: 414069 (antisense e[5mC]*eT*dA*dT*dG*dA*dG*dT*dT*dA*dA*d[5mC]*dA*dT*dT*e[5mC]*e[5mC]*e[5mC]*eT*e[5mC]) [compound 414069]
- % inhibition: 62%
- inhibition of a TGF-beta1 mRNA: 60%

Substance: 414070 (antisense eG*eA*d[5mC]*dT*dA*dA*dT*dG*dT*dT*d[5mC]*dT*dA*dT*dA*eA*eA*e[5mC]*e[5mC]*e[5mC]) [compound 414070]
- % inhibition: 54%

Substance: 414071 (antisense eT*eA*dG*dA*dA*dG*dT*d[5mC]*dA*dT*dT*dT*d[5mC]*dT*dA*eA*eT*eG*eA*eT) [compound 414071]
- % inhibition: 0%

Substance: 414072 (antisense eG*e[5mC]*d[5mC]*dG*dA*dA*dG*dG*dT*dG*dT*dT*dT*dT*d[5mC]*eT*eT*eG*e[5mC]*e[5mC]) [compound 414072]
- % inhibition: 48%

Substance: 414073 (antisense e[5mC]*eT*dT*d[5mC]*d[5mC]*d[5mC]*d[5mC]*dA*dA*dA*d[5mC]*dA*dG*dG*d[5mC]*eT*eT*e[5mC]*e[5mC]*eA) [compound 414073]
- % inhibition: 65%
- inhibition of a TGF-beta1 mRNA: 60% and 65%

Substance: 414074 (antisense eA*eA*dG*dT*dG*dA*d[5mC]*d[5mC]*d[5mC]*d[5mC]*dA*dG*dG*dA*d[5mC]*eA*eA*eA*e[5mC]*eA) [compound 414074]
- % inhibition: 24%

Substance: 414075 (antisense eG*eA*dT*dT*dA*dG*d[5mC]*d[5mC]*dA*dA*dT*d[5mC]*dA*d[5mC]*dT*e[5mC]*eA*eG*eG*eT) [compound 414075]
- % inhibition: 75%
- inhibition of a TGF-beta1 mRNA: 60% and 65% and 70% and 75%

Substance: 414076 (antisense eG*eT*dT*d[5mC]*d[5mC]*d[5mC]*d[5mC]*dA*dG*d[5mC]*dT*dA*d[5mC]*d[5mC]*dT*eA*eG*e[5mC]*e[5mC]*eA) [compound 414076]
- % inhibition: 57%

Substance: 414077 (antisense eT*e[5mC]*d[5mC]*dA*dG*dG*d[5mC]*d[5mC]*dT*dT*dT*dG*d[5mC]*dA*d[5mC]*eA*eG*eG*e[5mC]*eT) [compound 414077]
- % inhibition: 71%
- inhibition of a TGF-beta1 mRNA: 60% and 65% and 70%

Substance: 414078 (antisense eT*eG*dG*dG*d[5mC]*dA*dA*dT*dT*dA*dT*dT*dG*dA*dA*eT*eA*eA*eA*eA) [compound 414078]
- % inhibition: 18%

Substance: 414079 (antisense eG*eT*d[5mC]*dT*dT*dG*dG*dT*dT*dA*dT*d[5mC]*dA*d[5mC]*dT*eA*eT*eG*eT*e[5mC]) [compound 414079]
- % inhibition: 62%
- inhibition of a TGF-beta1 mRNA: 60%

Substance: 414080 (antisense eT*eT*dG*dA*d[5mC]*d[5mC]*dA*dA*dG*dA*d[5mC]*dA*dG*dA*dT*eG*eA*eG*e[5mC]*eT) [compound 414080]
- % inhibition: 54%

Substance: 414081 (antisense eG*e[5mC]*dT*dT*dG*dG*dG*dA*d[5mC]*dT*d[5mC]*dA*dG*d[5mC]*dA*eT*eT*eG*eA*e[5mC]) [compound 414081]
- % inhibition: 49%

Substance: 414082 (antisense eG*eA*dG*dA*dG*dG*dG*dA*dA*dG*d[5mC]*d[5mC]*dA*dG*dT*e[5mC]*eT*eG*eA*eG) [compound 414082]
- % inhibition: 19%

Substance: 414083 (antisense eA*eA*d[5mC]*d[5mC]*dT*dG*dG*dA*dG*d[5mC]*dA*d[5mC]*d[5mC]*dT*dG*eG*eT*e[5mC]*eA*eG) [compound 414083]
- % inhibition: 42%

Substance: 414084 (antisense eT*e[5mC]*dA*dG*d[5mC]*d[5mC]*d[5mC]*dA*dA*dG*d[5mC]*dA*d[5mC]*dA*dG*e[5mC]*eA*eG*e[5mC]*eA) [compound 414084]
- % inhibition: 75%
- inhibition of a TGF-beta1 mRNA: 60% and 65% and 70% and 75%

Substance: 414085 (antisense e[5mC]*eT*dA*dA*dA*dG*dG*dA*dG*dA*d[5mC]*dA*dG*dA*dT*eG*e[5mC]*eT*e[5mC]*eA) [compound 414085]
- % inhibition: 66%
- inhibition of a TGF-beta1 mRNA: 60% and 65%

Substance: 414086 (antisense eT*eT*dG*dA*dA*dT*dT*d[5mC]*d[5mC]*dA*dA*d[5mC]*dA*dA*dT*e[5mC]*eA*e[5mC]*eA*eG) [compound 414086]
- % inhibition: 54%

Substance: 414087 (antisense eG*eT*dG*dA*d[5mC]*d[5mC]*dT*dT*d[5mC]*d[5mC]*dA*dA*d[5mC]*dT*dT*eT*eG*eA*eA*eT) [compound 414087]
- % inhibition: 77%
- inhibition of a TGF-beta1 mRNA: 60% and 65% and 70% and 75%

Substance: 414088 (antisense eT*eT*d[5mC]*dT*dA*dG*d[5mC]*dA*dT*dT*d[5mC]*dT*dA*dG*dA*eA*eT*e[5mC]*e[5mC]*e[5mC]) [compound 414088]
- % inhibition: 66%
- inhibition of a TGF-beta1 mRNA: 60% and 65%

Substance: 414089 (antisense eA*eA*dT*dT*d[5mC]*dT*dA*dG*d[5mC]*dA*dT*dT*d[5mC]*dT*dA*eG*eA*eA*eT*e[5mC]) [compound 414089]
- % inhibition: 18%

Substance: 414090 (antisense eG*eA*dT*dT*d[5mC]*d[5mC]*dA*dA*dT*dG*dT*dT*dT*d[5mC]*dA*eG*e[5mC]*eT*eT*eT) [compound 414090]
- % inhibition: 80%
- inhibition of a TGF-beta1 mRNA: 60% and 65% and 70% and 75% and 80%

Substance: 414091 (antisense eG*eG*dT*dA*dT*d[5mC]*d[5mC]*dA*d[5mC]*dA*dA*dT*dT*dG*dG*e[5mC]*e[5mC]*eA*eG*eT) [compound 414091]
- % inhibition: 64%
- inhibition of a TGF-beta1 mRNA: 60%

Substance: 414092 (antisense eG*eA*dG*dA*dT*dA*d[5mC]*d[5mC]*dA*dA*dT*dA*dT*dT*d[5mC]*eT*eG*e[5mC]*eT*eT) [compound 414092]
- % inhibition: 86%
- inhibition of a TGF-beta1 mRNA: 60% and 65% and 70% and 75% and 80% and 85%

Substance: 414093 (antisense eA*eA*d[5mC]*dA*dT*dT*d[5mC]*d[5mC]*dA*dA*d[5mC]*dA*d[5mC]*dT*dG*eA*eG*eT*eT*e[5mC]) [compound 414093]
- % inhibition: 68%
- inhibition of a TGF-beta1 mRNA: 60% and 65%

Substance: 414094 (antisense eT*e[5mC]*dA*dA*dG*dA*dG*dG*dT*dT*d[5mC]*dA*dA*dA*d[5mC]*eT*eG*eA*e[5mC]*eA) [compound 414094]
- % inhibition: 67%
- inhibition of a TGF-beta1 mRNA: 60% and 65%

Substance: 414095 (antisense eA*eA*dT*dT*d[5mC]*d[5mC]*dA*dG*dT*dA*dT*dG*d[5mC]*d[5mC]*dA*eG*eT*eA*eT*eT) [compound 414095]
- % inhibition: 46%

Substance: 414096 (antisense e[5mC]*e[5mC]*dA*dA*d[5mC]*d[5mC]*dT*dT*dT*dG*dA*dG*dG*dA*dT*e[5mC]*eT*eT*eG*eG) [compound 414096]
- % inhibition: 74%
- inhibition of a TGF-beta1 mRNA: 60% and 65% and 70%

Substance: 414097 (antisense eG*eA*dA*dT*d[5mC]*d[5mC]*dA*dA*d[5mC]*dA*dT*dT*dT*d[5mC]*dA*eG*e[5mC]*eT*eT*eT) [compound 414097]
- % inhibition: 74%
- inhibition of a TGF-beta1 mRNA: 60% and 65% and 70%

Substance: 414098 (antisense eA*eA*dG*dG*dG*dA*dG*dG*dA*dA*dT*dA*dA*dG*dG*eT*e[5mC]*eA*eG*eA) [compound 414098]
- % inhibition: 70%
- inhibition of a TGF-beta1 mRNA: 60% and 65% and 70%

Substance: 414099 (antisense eG*eT*dA*dG*dG*d[5mC]*dT*dA*dT*dT*dA*dA*dT*dA*dG*eT*eT*eA*eA*eG) [compound 414099]
- % inhibition: 37%

Substance: 414100 (antisense eT*eT*d[5mC]*d[5mC]*dA*d[5mC]*dT*d[5mC]*dA*dA*dT*dG*dA*dA*dT*eG*eG*eA*eA*eA) [compound 414100]
- % inhibition: 48%

Substance: 414101 (antisense eG*eA*d[5mC]*dA*dG*d[5mC]*dA*dA*dG*dA*d[5mC]*d[5mC]*dA*dA*d[5mC]*eA*e[5mC]*e[5mC]*eT*eT) [compound 414101]
- % inhibition: 70%
- inhibition of a TGF-beta1 mRNA: 60% and 65% and 70%

Substance: 414103 (antisense eA*eT*dT*d[5mC]*dA*dA*dG*dT*dA*dA*dG*dG*dT*d[5mC]*dT*eA*e[5mC]*eA*e[5mC]*eA) [compound 414103]
- % inhibition: 58%

Substance: 414104 (antisense eA*eG*dG*dA*dT*dT*d[5mC]*dA*dA*dG*dT*dA*dA*dG*dG*eT*e[5mC]*eT*eA*e[5mC]) [compound 414104]
- % inhibition: 61%
- inhibition of a TGF-beta1 mRNA: 60%

Substance: 414105 (antisense eG*eA*dT*dA*dT*d[5mC]*dT*dA*dG*dA*dG*dG*dA*dA*dT*eA*eT*e[5mC]*eT*eA) [compound 414105]
- % inhibition: 27%

Substance: 414106 (antisense eA*eT*dT*d[5mC]*d[5mC]*dT*dT*dG*dA*dT*dA*dT*d[5mC]*dT*dA*eG*eA*eG*eG*eA) [compound 414106]
- % inhibition: 74%
- inhibition of a TGF-beta1 mRNA: 60% and 65% and 70%
